Data on two compounds can be found in patent US11225503B2, “Crystobactamides” (HELMHOLTZ-ZENTRUM FÜR INFEKTIONSFORSCHUNG GMBH, priority 2013, dated 2022).

Converted amounts (≈) assume the structure as drawn. Read-outs that look alike come from different tables or passages of the source.

In one experiment the test system is E. coli WT. Kind of experiment: Susceptibility of mutant E. coli strains, MIC. Type of experiment: cell-based. The note with it: Escherichia coli. The source says:
Cystobactamides were screened using a panel of E. coli strains with typical mutations in gyrA and parC genes (Table 11).
High-level quinolone resistance often results from a combination of several target site mutations and altered efflux mechanisms. […] This, in turn, leads to overproduction of MarA and AcrAB and overexpression of the AcrAB efflux pump is associated with the MAR (multiple antibiotic resistance) phenotype.^[5]
(§1) Bacterial wildtype strains used in susceptibility assays were either part of our strain collection or purchased from the German Collection of Microorganisms and Cell Cultures (DSMZ) or from the American Type Culture Collection (ATCC). E. coli strain WT^[6] and E. coli mutants were kindly provided by Prof. Dr. P. Heisig, Pharmaceutical Biology and Microbiology, University of Hamburg.
(§2) MIC values were determined in microdilution assays. Overnight cultures were diluted in the appropriate growth medium to achieve an inoculum of 10^4-10^6 cfu/mL. Yeasts were grown in Myc medium (1% phytone peptone, 1% glucose, 50 mM HEPES, pH 7.0), S. pneumonia and E. faecalis in tryptic soy broth (TSB: 1.7% peptone casein, 0.3% peptone soymeal, 0.25% glucose, 0.5% NaCl, 0.25% K2HPO4; pH 7.3); M. smegmatis in Middlebrook 7H9 medium supplemented with 10% Middlebrook ADC enrichment and 2 ml/l glycerol). All other listed bacteria were grown in Müller-Hinton broth (0.2% beef infusion solids, 1.75% casein hydrolysate, 0.15% starch, pH 7.4). Cystobactamides and reference drugs were added directly to the cultures in sterile 96-well plates as duplicates and serial dilutions were prepared. Microorganisms were grown on a microplate shaker (750 rpm, 30-37° C., 18-48 h), except S. pneumonia, which was grown at non-shaking conditions (37° C., 5% CO2, 18 h). Growth inhibition was assessed by visual inspection and the MIC was defined as the lowest concentration of compound that inhibited visible growth.

The target in the next experiment is T1, E. coli topoisomerase IV (Escherichia coli, UniProt P0AFI2+P20083).
T1 construct: purchased Inspiralis (Norwich, UK)
The experiment in a line: Topoisomerase IV relaxation (inhibition) assay. Type of experiment: biochemical. As for the experimental part: Prokaryotic DNA gyrase and topoisomerase IV share a high degree of homology and gyrase inhibitors typically show a topoisomerase IV inhibitory activity.^8 To test the influence of the cystobactamides on topoisomerase IV a commercial E. coli topoisomerase IV kit (Inspiralis) was used.
The topo IV reactions were titrated with varying concentrations of A-D and resolved by agarose gel electrophoresis. For IC50 determination the band intensity of the supercoiled plasmid was determined using Adobe Photoshop, plotted vs. [cystobactamide] and fitted using Hill's equation.
(§3) Following natural product concentrations were used in the assay:
Control reactions were: no enzyme and a standard reaction in presence of 5% (v/v) DMSO. All reaction samples were equilibrated for 10 minutes at room-temperature in the absence of DNA. Then the relaxed plasmid was added to start the reaction.
(§4) To determine IC50 values, the formation of supercoiled (gyrase) or relaxed (topoisomerase I, II IV) plasmid was quantified using Adobe Photoshop (Histogram mode). Plotting of these values versus the compound concentration yielded sigmoidal shaped curves, which were fitted using Hill's equation (Origin Pro 8.5). All determined IC50 values are the averages of three independent experiments.

A further experiment concerns Pichia anomala DSM-6766. Kind of experiment: Susceptibility testing, MIC microdilution. Type of experiment: cell-based. The conditions noted are these: Hansenula anomala, DSM6766. The protocol:
as §1, §2
A general note: Dilution methods test growth across graded concentrations, often in twofold steps.

Experiment [1] has as its system Klebsiella pneumoniae DSM-30104. Kind of experiment: Susceptibility testing, MIC microdilution. It is filed as cell-based. The conditions noted are these: Klebsiella pneumoniae, DSM30104. The protocol:
as §1, §2

In another experiment the target is T2, E. coli gyrase (Escherichia coli, UniProt P0AES4+P0AES6).
T2 construct: purchased Inspiralis (Norwich, UK)
The experiment in a line: Gyrase supercoiling (inhibition) assay. Type of experiment: biochemical. The protocol:
To test the anti-gyrase activity of cystobactamides, commercial E. coli gyrase supercoiling kits (Inspiralis) were used.
For IC50 determination the band intensity of the supercoiled plasmid was determined using Adobe Photoshop, plotted vs. [cystobactamide] and fitted using Hill's equation.
All natural products stock solutions and dilutions were prepared in 100% DMSO and added to the supercoiling reactions giving a final DMSO concentration of 5% (v/v).
as §3
Control reactions were: no enzyme and a standard reaction in presence of 5% (v/v) DMSO.
All reaction samples were equilibrated for 10 minutes at room-temperature in the absence of DNA. Then the relaxed plasmid was added to start the reaction.
To determine IC50 values, the formation of supercoiled (gyrase) or relaxed (topoisomerase I, II IV) plasmid was quantified using Adobe Photoshop (Histogram mode). […] All determined IC50 values are the averages of three independent experiments.

Experiment [2] deals with T3, H. sapiens topoisomerase I (Homo sapiens, UniProt P11387).
T3 construct: purchased Inspiralis (Norwich, UK)
T3 sequence (P11387 1-765): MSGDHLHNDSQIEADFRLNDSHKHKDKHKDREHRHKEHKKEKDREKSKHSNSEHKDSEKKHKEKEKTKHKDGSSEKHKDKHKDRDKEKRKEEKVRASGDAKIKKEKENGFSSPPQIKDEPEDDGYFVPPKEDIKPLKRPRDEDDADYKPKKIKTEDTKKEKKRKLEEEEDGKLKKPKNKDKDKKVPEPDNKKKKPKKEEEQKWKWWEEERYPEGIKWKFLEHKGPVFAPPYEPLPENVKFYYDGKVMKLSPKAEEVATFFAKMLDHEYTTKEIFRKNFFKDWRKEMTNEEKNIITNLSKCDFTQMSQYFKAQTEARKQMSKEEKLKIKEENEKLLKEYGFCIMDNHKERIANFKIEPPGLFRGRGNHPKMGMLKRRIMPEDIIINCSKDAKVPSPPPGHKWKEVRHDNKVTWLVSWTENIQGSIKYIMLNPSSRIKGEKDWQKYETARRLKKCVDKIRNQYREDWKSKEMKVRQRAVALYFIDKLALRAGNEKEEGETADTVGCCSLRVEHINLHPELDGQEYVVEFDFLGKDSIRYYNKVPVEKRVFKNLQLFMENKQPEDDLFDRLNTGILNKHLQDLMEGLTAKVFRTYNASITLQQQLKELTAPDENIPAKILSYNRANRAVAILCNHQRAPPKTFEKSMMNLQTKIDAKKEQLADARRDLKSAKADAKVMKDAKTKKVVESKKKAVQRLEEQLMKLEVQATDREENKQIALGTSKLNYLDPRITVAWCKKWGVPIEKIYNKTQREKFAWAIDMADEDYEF
Kind of experiment: Topoisomerase I relaxation (inhibition) assay. Type of experiment: biochemical. As for the experimental part: Aside the ATP-dependent type IIa topoisomerases like E. coli gyrase, topoIV and human topoII, the activity of cystobactamides on the ATP-independent human topoisomerase I was tested as well.
The topo I reactions were titrated with varying concentrations of A-D and resolved by agarose gel electrophoresis. For IC50 determination the band intensity of the supercoiled plasmid was determined using Adobe Photoshop, plotted vs. [cystobactamide] and fitted using Hill's equation.
as §3
Cystobactamide C: 300 μM; 30 μM; 3 μM
Control reactions were: no enzyme and a standard reaction in presence of 5% (v/v) DMSO. All reaction samples were equilibrated for 10 minutes at room-temperature in the absence of DNA. Then the relaxed plasmid was added to start the reaction
as §4

[3] abbreviates: IC50 in the Gyrase inhibition assay, table, averages of three independent experiments.
Setting [4] is: apparent IC50, E. coli gyrase, E. coli gyrase 20.5 nM eq. 1 unit.

T1 sequence (P20083 whole entry): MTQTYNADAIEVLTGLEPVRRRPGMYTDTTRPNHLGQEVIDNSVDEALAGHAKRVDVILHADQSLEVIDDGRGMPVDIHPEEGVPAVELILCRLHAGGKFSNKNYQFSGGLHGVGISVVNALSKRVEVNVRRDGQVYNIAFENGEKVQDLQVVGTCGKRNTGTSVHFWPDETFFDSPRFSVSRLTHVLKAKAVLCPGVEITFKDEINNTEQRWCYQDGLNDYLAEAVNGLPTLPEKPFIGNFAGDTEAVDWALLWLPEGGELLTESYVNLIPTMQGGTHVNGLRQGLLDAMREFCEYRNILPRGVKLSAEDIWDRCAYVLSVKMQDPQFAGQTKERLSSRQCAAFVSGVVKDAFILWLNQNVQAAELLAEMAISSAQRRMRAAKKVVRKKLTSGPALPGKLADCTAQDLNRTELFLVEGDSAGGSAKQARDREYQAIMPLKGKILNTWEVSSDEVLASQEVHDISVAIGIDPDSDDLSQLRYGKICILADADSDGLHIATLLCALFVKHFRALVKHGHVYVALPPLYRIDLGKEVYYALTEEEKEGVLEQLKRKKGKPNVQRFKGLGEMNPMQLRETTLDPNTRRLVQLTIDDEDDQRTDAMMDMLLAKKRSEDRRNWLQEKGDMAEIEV
T1 sequence (P0AFI2 whole entry): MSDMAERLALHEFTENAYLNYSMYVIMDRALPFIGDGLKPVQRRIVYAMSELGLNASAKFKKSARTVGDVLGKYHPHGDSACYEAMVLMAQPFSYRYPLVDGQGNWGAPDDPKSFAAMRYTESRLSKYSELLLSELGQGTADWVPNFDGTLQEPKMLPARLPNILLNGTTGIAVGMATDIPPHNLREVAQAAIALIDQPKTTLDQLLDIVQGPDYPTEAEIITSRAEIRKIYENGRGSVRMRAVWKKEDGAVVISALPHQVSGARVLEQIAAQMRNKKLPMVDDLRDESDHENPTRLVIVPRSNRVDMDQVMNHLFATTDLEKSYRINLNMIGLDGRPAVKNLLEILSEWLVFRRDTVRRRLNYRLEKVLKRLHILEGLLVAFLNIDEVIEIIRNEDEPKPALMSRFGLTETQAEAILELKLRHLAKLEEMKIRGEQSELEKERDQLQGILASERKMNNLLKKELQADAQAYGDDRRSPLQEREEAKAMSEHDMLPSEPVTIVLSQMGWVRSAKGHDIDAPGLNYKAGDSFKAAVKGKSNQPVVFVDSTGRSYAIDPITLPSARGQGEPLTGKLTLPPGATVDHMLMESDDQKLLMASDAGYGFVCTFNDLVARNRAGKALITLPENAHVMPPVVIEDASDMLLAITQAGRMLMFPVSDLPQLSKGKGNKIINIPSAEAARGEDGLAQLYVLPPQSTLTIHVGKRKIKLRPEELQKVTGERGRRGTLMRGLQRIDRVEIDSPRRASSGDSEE
T2 sequence (P0AES4 whole entry, one chain of several): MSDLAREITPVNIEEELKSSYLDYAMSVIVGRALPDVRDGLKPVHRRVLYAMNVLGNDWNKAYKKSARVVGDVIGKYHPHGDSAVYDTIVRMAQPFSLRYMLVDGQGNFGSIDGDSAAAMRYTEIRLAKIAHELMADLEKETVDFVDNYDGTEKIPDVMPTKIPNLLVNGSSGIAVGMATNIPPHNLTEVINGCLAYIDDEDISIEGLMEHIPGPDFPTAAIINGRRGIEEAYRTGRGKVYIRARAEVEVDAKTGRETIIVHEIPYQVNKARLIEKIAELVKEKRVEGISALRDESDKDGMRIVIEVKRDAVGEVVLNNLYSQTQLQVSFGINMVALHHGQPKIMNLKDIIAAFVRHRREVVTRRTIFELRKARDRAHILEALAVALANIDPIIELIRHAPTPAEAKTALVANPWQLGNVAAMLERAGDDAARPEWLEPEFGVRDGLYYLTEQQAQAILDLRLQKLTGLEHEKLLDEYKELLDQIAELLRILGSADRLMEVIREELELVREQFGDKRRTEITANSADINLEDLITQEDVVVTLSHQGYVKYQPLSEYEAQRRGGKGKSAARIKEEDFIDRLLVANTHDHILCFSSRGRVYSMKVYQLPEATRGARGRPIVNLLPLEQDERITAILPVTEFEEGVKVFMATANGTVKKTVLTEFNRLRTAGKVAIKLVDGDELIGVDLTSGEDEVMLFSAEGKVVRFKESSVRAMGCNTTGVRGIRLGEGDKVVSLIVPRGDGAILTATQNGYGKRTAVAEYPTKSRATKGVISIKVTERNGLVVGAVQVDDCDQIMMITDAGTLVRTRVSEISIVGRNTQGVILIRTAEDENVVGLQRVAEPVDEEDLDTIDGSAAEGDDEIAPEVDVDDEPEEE

Regarding `CO[C@H](C(=O)Nc1ccc(C(=O)Nc2ccc(C(=O)Nc3ccc(C(=O)O)cc3OC(C)C)c(O)c2OC(C)C)cc1)[C@H](NC(=O)c1ccc(NC(=O)c2ccc([N+](=O)[O-])cc2)cc1)C(=O)O` [cystobactamide A, Cystobactamide A], the MIC in the experiment on E. coli WT is 0.5 µg/mL; in the experiment on Pichia anomala DSM-6766 it was greater than 59 µg/mL; in experiment [1], greater than 59 µg/mL. In addition, the IC50 at E. coli topoisomerase IV (IC50 Topo IV, E. coli topoisomerase IV) was roughly 815 µM; against E. coli topoisomerase IV (IC50 in the E. coli Topoisomerase IV inhibition assay, averages of three independent experiments) it was greater than 160 µM; at E. coli gyrase (IC50 gyrase, E. coli gyrase) it was 6 µM; at E. coli gyrase (setting [3]), 6 µM; on E. coli gyrase (setting [4]), 6 µM; in experiment [2], roughly 1 µM. On E. coli topoisomerase IV, the “concentration at which E. coli topo IV activity was inhibited (only the highest tested concentration)” value was found to be 815 µM.

With `CC(C)Oc1cc(C(=O)O)ccc1NC(=O)c1ccc(NC(=O)c2ccc(N)cc2)c(OC(C)C)c1O` [cystobactamide C, Cystobactamide C], the results for the MIC (with E. coli WT; in the experiment with Pichia anomala DSM-6766; in experiment [1]) were 8.1 µg/mL, greater than 65 µg/mL and 65 µg/mL (≈ 128 µM), respectively. Besides, the IC50 at E. coli topoisomerase IV (E. coli topoisomerase IV, read-out: IC50 Topo IV) was roughly 300 µM; at E. coli topoisomerase IV (averages of three independent experiments, read-out: IC50 in the E. coli Topoisomerase IV inhibition assay) it was greater than 60 µM; against E. coli gyrase (IC50 gyrase, E. coli gyrase) it was 7.2 µM; against E. coli gyrase (setting [3]), 7.2 µM; on E. coli gyrase (setting [4]), 7.7 µM; in experiment [2] it was roughly 6 µM. Further, at E. coli topoisomerase IV, the “concentration at which E. coli topo IV activity was inhibited (only the highest tested concentration)” value was found to be 300 µM. For the same compound, on E. coli topoisomerase IV (topo IV vs. gyrase), the “ratios IC50(topo IV)/IC50(gyrase)” value is roughly 42.

The MIC is the lowest concentration found to suppress growth. As usually defined, the IC50 is the point on the concentration scale where inhibition reaches its midpoint.
